Measurements: PMC12498190, “A Photocaged N‐Phosphonopiperidinone as a Selective Photo‐Cleavable DPP8/9 Inhibitor” (Chembiochem, 2025)

Assays:
DPP9 = DPP9 (Homo sapiens, UniProt Q86TI2); test: In vitro gel-based competitive ABPP in HEK293 cell lysates, 100 kDa band; set-up: endogenous in cells; host or cells: HEK293 (Cytion, Germany, 300192); details: HEK293 lysate; 10 µM probe, 1 h; ca. 100 kDa (DPP9) and 70 kDa (PREP); regardless of irradiation
Protocol: Therefore, HEK293 cell lysates were pre‐incubated with 10 µM 5 or DMSO vehicle control for 30 min, followed by a labeling reaction with 2 µM of the serine hydrolase‐specific ABP fluorophosphonate‐alkyne (≡FP) or 10 µM 2 (Figure 2B). […] Of note, this band has been previously assigned as DPP9 (DPP8 would migrate in the same range, but is only expressed at low levels in the used cell line and therefore cannot be visualized by this approach).^[ [36] ^, [37] ^] […] Again, this labeling was observed regardless of prior irradiation. Subsequently, the competitive labeling experiment was conducted by pre‐incubation with compound 5, with or without subsequent irradiation.
(§1) Figure 2 Competitive ABPP with photo‐cleavable inhibitor 5 in HEK293 cells. A) Schematic overview of a competitive ABPP experiment. A proteome is pre‐incubated with a competitor, followed by a labeling reaction with an activity‐based probe (ABP). In the case of a photocaged inhibitor, the active compound can be released via irradiation. Target proteins of the competitor cannot be bound by the ABP, resulting in an absence of the respective protein band in‐gel analysis. Created in BioRender. Najdzion, M. (2025) https://BioRender.com/84zn8cb B) Gel‐based competitive ABPP experiment in HEK293 cell lysates with the broadband serine hydrolase ABP ≡FP or the DPP8/9‐directed ABP 2 and the photocaged inhibitor 5, at the indicated concentrations, after or without prior irradiation with green light for 5 min. The corresponding pre‐incubation time for 5 was 30 min. C) Corresponding in situ competitive ABPP experiment in HEK293 cell culture, again with 10 µM 2 for 1 h. Labeling was competed by pre‐incubation with 20 µM 5 for 1 h, followed by an activation of the photocaged inhibitor by irradiation for 5 min with a green LED lamp, if applicable. D) Green light treatment has no cytotoxic effect. HEK293 cells were irradiated with a green LED lamp in the presence of 0.5% DMSO for 5 min (‘light’), and cell viability was measured after 24 h. […] Data was normalized to the non‐irradiated control (‘dark’). E) Green light treatment leads to the release of the active DPP8/9 inhibitor. HEK293 cells were incubated with compound 1 or 5 for 24 h. For both compounds, cell viability was measured under ‘dark’ (not irradiated) and ‘light’ (irradiated for 5 min with a green LED lamp after the addition of the inhibitor) conditions. […] Data was normalized to the non‐irradiated DMSO control.
For in vitro ABPP, cell lysates were generated from HEK293 cells grown on a 10 cm tissue dish. […] The cell lysates were cleared via centrifugation (30 min, 20,817 × g, 4 °C), and protein concentration was determined with a modified Bradford assay using Roti‐Nanoquant (Carl Roth, Germany). […]

[1] = Cell viability assay (MTT); assay type: cell-based, human; details: human, HEK293 cells, regardless of irradiation, read-out: Remaining viability
Protocol: as §1
(§2) In order to validate target engagement in living cells and potential cytotoxic effects of green light treatment, we determined cell viability of HEK293 cells after 24 h inhibitor treatment with 5 with or without 5 min green light irradiation, as the application of DPP8/9 inhibitors at high concentrations and thus elimination of any residual DPP8/9 activity results in cytotoxicity.^[ [38], [39] ^– [40] ^] As a control, effects of green light treatment on cell viability were examined in the absence of any inhibitor after 24 h, again with or without 5 min irradiation (Figure 2D). […] Of note, no additional effect of the photocage on cell viability was observed. In summary, our cell viability studies confirm target engagement in live cells exclusively after photorelease, thereby again confirming the suitability of the photocaged DPP8/9 inhibitor 5 as a cell biological tool compound.
(§3) To investigate the cytotoxicity of compounds, 2 × 10^4 HEK293 cells were cultured in DMEM (+/+) on 96‐well flat‐bottom cell culture plates (Sarstedt, Germany) as described above. After 24 h, cells were treated with indicated concentrations of compounds (final DMSO concentration: 0.5%) and, if applicable, irradiated with a green LED lamp (λ = 520−530 nm; Eurolite, Germany) for 5 min. Control cells were treated with DMSO. Cell viability was measured 24 h after compound treatment. To this end, 25 µL Thiazolyl Blue Tetrazolium Bromide (MTT) solution (5 mg mL^−1 MTT (Sigma Aldrich, USA) in PBS (Gibco, USA)) was added to each well directly into the medium. After 3 h of incubation at 37 °C, the medium was removed and formazan crystals were dissolved by adding 150 µL DMSO (1 h, 37 °C, gentle shaking), followed by an absorbance measurement at 570 and 630 nm as a reference using a Tecan Spark 10 M multimode microplate reader (Tecan Group Ltd., Switzerland). Each experiment was performed with five replicates. Relative cell viability was expressed as a percentage relative to the DMSO‐treated control cells.

HEK293 cells = test: Cell viability assay (MTT); assay type: cell-based, human; details: low micromolar range, 24 h
Protocol: as §1, §2, §3

[2] = assay type: physicochemical; details: longer irradiation times, green LED 520-530 nm, up to 5 min
Protocol: With 5 in our hands, we then started our probe characterization by determining the velocity of the photorelease reaction, i.e., the light‐triggered cleavage of the photocage, thereby delivering again the “active” inhibitor 1. To this end, a 50 µM solution of 5 in 10% acetonitrile in MS‐grade water was irradiated with a green LED lamp (λ = 520‐530 nm, 30 W) for the indicated time periods, and the release of the active inhibitor 1 was quantified via liquid chromatography‐mass spectrometry (LC–MS) analysis (Figure 1A). […] After 3 min, cleavage was quantitative (>99%). Importantly, the only products observed were the desired ‘free’ inhibitor 1 and the cleaved photogroup, indicating a clean activation to 1.
Figure 1 DPP inhibition by photo‐cleavable inhibitors. A) LC‐MS analysis of the photocleavage reaction of 5 after irradiation with green light. 50 µM of compound 5 was irradiated with a green LED lamp (λ = 520‐530 nm, 30 W) for up to 5 min, and the resulting reaction mixture was analyzed via LC‐MS. […] B) Resulting quantification of the photolysis of 5 based on peak areas depicted in A) (n = 3 technical replicates). […] Enzyme activity was determined by measuring the release of AMC from the substrate GP‐AMC. […]
Compound 5 was dissolved in DMSO. In order to quantify the effect of irradiation time on photocleavage of the BODIPY moiety, 50 µL aliquots of a 50 µM solution of 5 in 10% acetonitrile (ACN; VWR Chemicals, USA) in MS‐grade water (VWR Chemicals, USA) were irradiated for 0–5 min with a green LED lamp (λ = 520–530 nm, 30 W; Eurolite, Germany) at room temperature (RT) and gentle shaking (final DMSO concentration: 0.5%).
Quantification of inhibitor release was then determined via LC‐MS on an LTQ XL linear ion trap mass spectrometer (ITMS; Thermo Fisher Scientific, USA) coupled to a DIONEX UltiMate 3000 system (Thermo Fisher Scientific, USA), operated using Xcalibur software 4.4.16.14. […] Quantification was done using Freestyle v1.6. based on the UV spectra (λ = 254 nm) using the Avalon peak detection algorithm. […]

DPP9, sequence (Q86TI2 whole entry): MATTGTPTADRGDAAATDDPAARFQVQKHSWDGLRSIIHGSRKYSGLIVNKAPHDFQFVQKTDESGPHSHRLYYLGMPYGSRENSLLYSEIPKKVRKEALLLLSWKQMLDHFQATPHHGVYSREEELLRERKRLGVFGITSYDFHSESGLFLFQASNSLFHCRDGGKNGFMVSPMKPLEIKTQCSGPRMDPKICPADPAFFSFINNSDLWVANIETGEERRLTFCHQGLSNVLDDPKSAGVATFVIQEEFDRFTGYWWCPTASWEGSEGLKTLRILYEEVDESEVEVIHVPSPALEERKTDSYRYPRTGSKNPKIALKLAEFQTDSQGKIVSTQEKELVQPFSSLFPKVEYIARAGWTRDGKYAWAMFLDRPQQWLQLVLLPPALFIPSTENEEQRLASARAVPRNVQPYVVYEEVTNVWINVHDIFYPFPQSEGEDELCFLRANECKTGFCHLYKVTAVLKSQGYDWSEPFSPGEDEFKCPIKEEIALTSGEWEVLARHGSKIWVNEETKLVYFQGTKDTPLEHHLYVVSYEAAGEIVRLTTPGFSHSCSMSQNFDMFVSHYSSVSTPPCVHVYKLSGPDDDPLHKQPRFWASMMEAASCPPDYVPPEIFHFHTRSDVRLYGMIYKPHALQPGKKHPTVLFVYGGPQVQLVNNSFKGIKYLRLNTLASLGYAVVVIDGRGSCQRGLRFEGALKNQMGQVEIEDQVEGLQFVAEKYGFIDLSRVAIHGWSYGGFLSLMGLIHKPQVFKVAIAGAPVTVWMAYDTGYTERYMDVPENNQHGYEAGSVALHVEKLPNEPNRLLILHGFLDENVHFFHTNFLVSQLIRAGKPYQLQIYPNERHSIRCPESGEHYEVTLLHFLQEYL

Structure (SMILES): C#CCCCP(=O)(OCC)N1CCC[C@H](N)C1=O (some centres unmarked) [Compound 2]
- Bands labeled by the probe in ABPP (in words) (DPP9): two bands

Structure (SMILES): CCCCCc1ccc(SCCP(=O)(OCC)N2CCC[C@H](N)C2=O)cc1 (some centres unmarked) [Compound 1]
- viability at 24 h, 25 µM ([1]; 25 µM): ~65%
- viability at 24 h, 50 µM ([1]; 50 µM): ~15%
- Effect on cell viability (in words) (HEK293 cells): did not significantly affect cell viability
- Photostability under photorelease conditions (in words) [2]: did not lead to further side products
